Drawing on PubChem BioAssay (NCI), this text covers GI50 and TGI for eight compounds.

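Following 48 hours of exposure in 96-well plates, responses at five concentrations were used to interpolate endpoints linearly. GI50: concentration for 50% inhibition of growth. TGI: total growth inhibition.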 Some results are limits rather than exact numbers.

Some test systems named below: 786-0 renal; ACHN renal; HCC-2998 colon; IGROV1 ovarian; OVCAR-4 ovarian; OVCAR-8 ovarian; RXF 393 renal; SF-268 CNS; SK-MEL-28 melanoma; SK-MEL-5 melanoma.
What all share (test): NCI tumour cell line growth inhibition, 48 h

On to `CN(CCO)c1ccc(N2Cc3ccccc3OC3=C2C(=O)c2c(O)ccc(O)c2C3=O)cn1`, for which the GI50 is 0.245 µM with 786-0 renal; 0.0462 µM in the assay on ACHN renal; 0.249 µM in the assay on HCC-2998 colon; 0.203 µM in the assay on IGROV1 ovarian; 0.173 µM with OVCAR-4 ovarian; 0.307 µM in the assay on OVCAR-8 ovarian. In addition, the GI50 with RXF 393 renal is 0.0954 µM; in the assay with SF-268 CNS, 0.274 µM; with SK-MEL-28 melanoma it was 0.246 µM; with SK-MEL-5 melanoma, 0.267 µM. The TGI with 786-0 renal came to 0.74 µM; in the assay on ACHN renal, 0.179 µM; with HCC-2998 colon, 0.608 µM; in the assay on IGROV1 ovarian it was 0.636 µM; in the assay with OVCAR-4 ovarian it was 0.343 µM; with OVCAR-8 ovarian it was 3.49 µM. The TGI with RXF 393 renal came out at 0.27 µM; in the assay with SF-268 CNS, 0.938 µM; in the assay on SK-MEL-28 melanoma, 0.611 µM; in the assay with SK-MEL-5 melanoma it was 0.717 µM.
In the case of `CN(C)CCNC(=O)c1ccc2nc3c(nc2c1)C(=O)c1ccccc1-3`, the TGI in the assay on 786-0 renal, with ACHN renal, in the assay on HCC-2998 colon, with IGROV1 ovarian, with OVCAR-4 ovarian and in the assay on OVCAR-8 ovarian was over 100 µM throughout. Moreover, the TGI with RXF 393 renal is over 100 µM; in the assay on SF-268 CNS, over 100 µM; in the assay with SK-MEL-28 melanoma, over 100 µM; with SK-MEL-5 melanoma, 32.1 µM.
Turning to `COc1cc(C(=O)N2CCN(c3ncccn3)CC2)c(N)cc1OCc1ccccc1`, the GI50 in the assay with 786-0 renal, in the assay with ACHN renal, in the assay with HCC-2998 colon, in the assay with IGROV1 ovarian, in the assay on OVCAR-4 ovarian and in the assay with OVCAR-8 ovarian was over 100 µM throughout. In addition, the GI50 in the assay with RXF 393 renal is over 100 µM; in the assay with SF-268 CNS it was over 100 µM; in the assay on SK-MEL-28 melanoma, over 100 µM; in the assay with SK-MEL-5 melanoma, 44.5 µM. Moreover, the TGI in the assay with 786-0 renal, with ACHN renal, in the assay on HCC-2998 colon, with IGROV1 ovarian, in the assay with OVCAR-4 ovarian and in the assay with OVCAR-8 ovarian was over 100 µM in each case. The TGI with RXF 393 renal, with SF-268 CNS, with SK-MEL-28 melanoma and in the assay on SK-MEL-5 melanoma was over 100 µM throughout.
For `CCOP(=O)(OCC)OC1C=CC2CCC1C2` (stereo not given), the TGI with 786-0 renal, in the assay with ACHN renal, in the assay on HCC-2998 colon, with IGROV1 ovarian, with OVCAR-4 ovarian and in the assay on OVCAR-8 ovarian was over 100 µM each time. In addition, the TGI in the assay on RXF 393 renal, in the assay on SF-268 CNS, in the assay on SK-MEL-28 melanoma and with SK-MEL-5 melanoma was over 100 µM throughout.
Turning to `COC1(OC)CC2C(=O)N(Cc3ccccc3)C1C=C2S(=O)(=O)c1ccccc1` (stereo not given), the TGI was 38.2 µM in the assay with 786-0 renal; 44.4 µM in the assay on ACHN renal; 33.6 µM with HCC-2998 colon; over 100 µM in the assay on IGROV1 ovarian; 53.5 µM in the assay with OVCAR-4 ovarian; 40.5 µM with OVCAR-8 ovarian. Further, the TGI in the assay with RXF 393 renal is 29 µM; in the assay with SF-268 CNS, over 100 µM; in the assay on SK-MEL-28 melanoma, 31.9 µM; with SK-MEL-5 melanoma it was 26.7 µM.
As to `c1ccc2c(c1)c1c(c3ccccc32)CN2CCCC2C1` (stereo not given), the TGI in the assay on 786-0 renal is 23.1 µM; in the assay with ACHN renal, 9.35 µM; in the assay with HCC-2998 colon, 17.1 µM; in the assay with IGROV1 ovarian, 12 µM; with OVCAR-4 ovarian, over 100 µM; with OVCAR-8 ovarian it was 14.5 µM. The TGI in the assay on RXF 393 renal came to 9.02 µM; with SF-268 CNS it was 13.2 µM; with SK-MEL-28 melanoma, 12.9 µM; in the assay with SK-MEL-5 melanoma it was 11.2 µM.
Turning to `Cc1cc(C)c(/C=C2\C(=O)Nc3ccc(NC(=O)CCCCCCC(=O)NO)cc32)[nH]1`, the GI50 is 15.1 µM in the assay on 786-0 renal; 6.18 µM in the assay with ACHN renal; 5.68 µM with HCC-2998 colon; 2.86 µM with IGROV1 ovarian; 8.34 µM in the assay on OVCAR-4 ovarian; 0.638 µM with OVCAR-8 ovarian. The GI50 in the assay with RXF 393 renal was 1.17 µM; in the assay with SF-268 CNS it was 1.62 µM; in the assay with SK-MEL-28 melanoma, 0.525 µM; in the assay with SK-MEL-5 melanoma, 0.335 µM. Also, the TGI in the assay with 786-0 renal, in the assay on ACHN renal, with HCC-2998 colon, in the assay with IGROV1 ovarian, in the assay with OVCAR-4 ovarian and in the assay on OVCAR-8 ovarian was over 100 µM throughout. Also, the TGI in the assay on RXF 393 renal is over 75.2 µM; in the assay on SF-268 CNS, over 100 µM; in the assay with SK-MEL-28 melanoma it was over 100 µM; in the assay on SK-MEL-5 melanoma it was 14.7 µM.
With `O=C(Nc1ccc(F)cc1)c1cc(S(=O)(=O)Nc2nc3ccccc3o2)c(SCc2ccccc2)cc1Cl`, the GI50 in the assay on 786-0 renal was 18.5 µM; in the assay on ACHN renal it was 17.5 µM; with HCC-2998 colon it was 18.4 µM; with IGROV1 ovarian, 0.611 µM; in the assay with OVCAR-4 ovarian, 26.9 µM; in the assay on OVCAR-8 ovarian it was 17.7 µM. Further, the GI50 in the assay on RXF 393 renal is 12.8 µM; with SF-268 CNS, 17.9 µM; with SK-MEL-28 melanoma, 25.8 µM; in the assay with SK-MEL-5 melanoma it was 17.9 µM. Besides, the TGI in the assay on 786-0 renal came to 35.3 µM; in the assay on ACHN renal, 32.2 µM; with HCC-2998 colon it was 32.6 µM; in the assay on IGROV1 ovarian, 21.3 µM; in the assay on OVCAR-4 ovarian, 60.9 µM; in the assay on OVCAR-8 ovarian it was 36 µM. Moreover, the TGI in the assay on RXF 393 renal worked out at 30.2 µM; with SF-268 CNS, 43.1 µM; in the assay on SK-MEL-28 melanoma, 58.2 µM; in the assay on SK-MEL-5 melanoma it was 31.9 µM.
